# Test results: ChEMBL document CHEMBL2390902, “Discovery of 1-(1,3,5-triazin-2-yl)piperidine-4-carboxamides as inhibitors of soluble epoxide hydrolase” (Bioorg Med Chem Lett, 2013)
# pIC50: −log10 of the molar value.
# Tests used:
# [1] = molecular target: D(1A) dopamine receptor (Homo sapiens) (UniProt P21728); test: Inhibition of human dopamine D1 receptor at 1 uM relative to control
# [2] = molecular target: Muscarinic acetylcholine receptor M2 (Homo sapiens) (UniProt P08172); test: Inhibition of human M2 receptor at 1 uM relative to control
# [3] = molecular target: 5-hydroxytryptamine receptor 6 (Homo sapiens) (UniProt P50406); test: Inhibition of human 5-HT6 receptor at 1 uM relative to control
# [4] = molecular target: C-X-C chemokine receptor type 2 (Homo sapiens) (UniProt P25025); test: Inhibition of human CXCR2 receptor at 1 uM relative to control
# [5] = molecular target: D(2) dopamine receptor (Homo sapiens) (UniProt P14416); test: Inhibition of human dopamine D2S receptor at 1 uM relative to control
# [6] = molecular target: Adrenergic receptor alpha-1 (Homo sapiens) (UniProt P35348+P25100+P35368); test: Inhibition of human alpha1 receptor at 1 uM relative to control
# [7] = Oral bioavailability in rat; format: ADME, organism-based; settings: in vivo
# [8] = molecular target: Mu-type opioid receptor (Homo sapiens) (UniProt P35372); test: Inhibition of human mu opioid receptor at 1 uM relative to control
# [9] = molecular target: Neuromedin-K receptor (Homo sapiens) (UniProt P29371); test: Inhibition of human NK3 receptor at 1 uM relative to control
# [10] = molecular target: Type-1 angiotensin II receptor (Homo sapiens) (UniProt P30556); test: Inhibition of human AT1 receptor at 1 uM relative to control
# Homo sapiens [11] = species: Homo sapiens; test: Inhibition of human P2X receptor at 1 uM relative to control
# [12] = molecular target: 5-hydroxytryptamine receptor 2A (Homo sapiens) (UniProt P28223); test: Inhibition of human 5-HT2A receptor at 1 uM relative to control
# Homo sapiens [13] = species: Homo sapiens; test: Inhibition of human BZD receptor at 1 uM relative to control
# Homo sapiens [14] = species: Homo sapiens; test: Inhibition of human GABA receptor at 1 uM relative to control
# [15] = molecular target: Substance-K receptor (Homo sapiens) (UniProt P21452); test: Inhibition of human NK2 receptor at 1 uM relative to control
# [16] = molecular target: 5-hydroxytryptamine receptor 5A (Homo sapiens) (UniProt P47898); test: Inhibition of human 5-HT5A receptor at 1 uM relative to control
# [17] = molecular target: Histamine H1 receptor (Homo sapiens) (UniProt P35367); test: Inhibition of human histamine H1 receptor at 1 uM relative to control
# [18] = molecular target: T1, Bifunctional epoxide hydrolase 2 (Homo sapiens, UniProt P34913)
# T1 sequence (P34913 whole entry): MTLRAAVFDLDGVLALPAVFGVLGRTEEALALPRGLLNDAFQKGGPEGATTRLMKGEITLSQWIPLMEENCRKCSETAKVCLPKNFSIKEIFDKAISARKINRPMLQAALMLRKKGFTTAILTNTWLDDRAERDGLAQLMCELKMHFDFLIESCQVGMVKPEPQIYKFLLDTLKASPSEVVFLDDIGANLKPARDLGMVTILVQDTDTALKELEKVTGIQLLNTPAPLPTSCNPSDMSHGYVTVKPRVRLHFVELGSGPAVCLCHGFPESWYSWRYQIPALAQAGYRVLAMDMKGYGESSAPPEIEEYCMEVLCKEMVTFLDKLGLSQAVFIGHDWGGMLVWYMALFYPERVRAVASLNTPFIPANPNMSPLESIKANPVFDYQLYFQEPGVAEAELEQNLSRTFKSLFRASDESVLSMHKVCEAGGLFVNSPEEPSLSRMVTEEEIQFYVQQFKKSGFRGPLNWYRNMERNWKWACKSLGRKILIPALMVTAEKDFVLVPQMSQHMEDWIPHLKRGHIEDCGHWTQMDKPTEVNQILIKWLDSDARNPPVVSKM
# Description: Inhibition of human soluble epoxide hydrolase using PHOME as substrate assessed as formation of 6-methoxy-2-naphthaldehyde incubated for 10 mins prior to substrate addition measured with in 30 mins by fluorescence assay
# [19] = molecular target: 5-hydroxytryptamine receptor 1B (Homo sapiens) (UniProt P28222); test: Inhibition of human 5-HT1B receptor at 1 uM relative to control
# [20] = molecular target: T1, Bifunctional epoxide hydrolase 2; remark: listed apart in the source
# Description: Inhibition of human soluble epoxide hydrolase overexpressed in HEK293F cells using EET as substrate assessed as formation of DHET incubated for 30 mins prior to substrate addition measured after 60 mins by ELISA
# [21] = Fraction unbound in rat plasma; format: ADME, cell-free
# Homo sapiens [22] = species: Homo sapiens; test: Inhibition of human delta2 opioid receptor at 1 uM relative to control
# [23] = molecular target: Sodium-dependent noradrenaline transporter (Homo sapiens) (UniProt P23975); test: Inhibition of human norepinephrine transporter at 1 uM relative to control
# [24] = molecular target: Sodium channel protein type 5 subunit alpha (Homo sapiens, UniProt Q14524); test: Inhibition of NaV1.5 (unknown origin)
# [25] = Volume of distribution at steady state in rat at 2 mg/kg, iv; format: ADME, organism-based; parameters: dose 2 mg/kg, route intravenous; settings: in vivo, read-out: Vdss
# [26] = molecular target: 5-hydroxytryptamine receptor 3A (Homo sapiens) (UniProt P46098); test: Inhibition of human 5-HT3 receptor at 1 uM relative to control
# Rattus norvegicus [27] = test: Dose normalized AUC in rat at 2 mg/kg, iv; format: ADME, organism-based; parameters: dose 2 mg/kg, route intravenous; settings: in vivo
# [28] = molecular target: Neurotensin receptor type 1 (Homo sapiens) (UniProt P30989); test: Inhibition of human NTS1 receptor at 1 uM relative to control
# Rattus norvegicus [29] = test: Free maximum concentration of drug in rat at 0.2 mg/kg, po; format: ADME, organism-based; parameters: dose 0.2 mg/kg, route oral; settings: in vivo
# Homo sapiens [30] = species: Homo sapiens; test: Inhibition of human chloride channel at 1 uM relative to control
# [31] = molecular target: Adrenergic receptor alpha-2 (Homo sapiens) (UniProt P08913+P18825+P18089); test: Inhibition of human alpha2 receptor at 1 uM relative to control
# [32] = molecular target: Sodium-dependent dopamine transporter (Homo sapiens) (UniProt Q01959); test: Inhibition of human dopamine transporter at 1 uM relative to control
# Cytochrome P450 2C8 = Cytochrome P450 2C8 (Homo sapiens, UniProt P10632); test: Inhibition of CYP2C8 (unknown origin); format: ADME
# [33] = molecular target: Kappa-type opioid receptor (Homo sapiens) (UniProt P41145); test: Inhibition of human kappa opioid receptor at 1 uM relative to control
# [34] = Plasma clearance in rat at 2 mg/kg, iv; format: ADME, organism-based; parameters: dose 2 mg/kg, route intravenous
# [35] = molecular target: Histamine H2 receptor (Homo sapiens) (UniProt P25021); test: Inhibition of human histamine H2 receptor at 1 uM relative to control
# [36] = molecular target: Endothelin-1 receptor (Homo sapiens) (UniProt P25101); test: Inhibition of human ETA receptor at 1 uM relative to control
# [37] = molecular target: Adenosine receptor A3 (Homo sapiens) (UniProt P0DMS8); test: Inhibition of human adenosine A3 receptor at 1 uM relative to control
# Rattus norvegicus [38] = test: In vivo inhibition of soluble epoxide hydrolase in rat assessed as increase in leukotoxin/leukotoxin diol ratio in plasma at 0.2 to 20 mg/kg, po measured after 4 hrs relative to vehicle-treated control; format: functional; settings: dose mg/kg 0.2-20
# Homo sapiens [39] = species: Homo sapiens; test: Inhibition of human sigma receptor at 1 uM relative to control
# [40] = molecular target: Neuropeptide Y receptor type 2 (Homo sapiens) (UniProt P49146); test: Inhibition of human Y2 receptor at 1 uM relative to control
# Sequence of Type-1 angiotensin II receptor (Homo sapiens) (P30556 whole entry): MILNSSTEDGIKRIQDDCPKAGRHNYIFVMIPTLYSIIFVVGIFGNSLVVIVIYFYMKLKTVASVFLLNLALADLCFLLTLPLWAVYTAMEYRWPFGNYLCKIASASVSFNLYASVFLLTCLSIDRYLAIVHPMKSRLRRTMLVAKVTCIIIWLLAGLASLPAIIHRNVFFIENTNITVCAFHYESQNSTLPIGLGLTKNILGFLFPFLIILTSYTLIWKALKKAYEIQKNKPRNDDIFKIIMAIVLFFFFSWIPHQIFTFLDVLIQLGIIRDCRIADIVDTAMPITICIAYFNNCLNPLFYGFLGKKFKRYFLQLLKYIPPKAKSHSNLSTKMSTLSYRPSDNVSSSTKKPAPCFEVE
# Sequence of Histamine H1 receptor (Homo sapiens) (P35367 whole entry): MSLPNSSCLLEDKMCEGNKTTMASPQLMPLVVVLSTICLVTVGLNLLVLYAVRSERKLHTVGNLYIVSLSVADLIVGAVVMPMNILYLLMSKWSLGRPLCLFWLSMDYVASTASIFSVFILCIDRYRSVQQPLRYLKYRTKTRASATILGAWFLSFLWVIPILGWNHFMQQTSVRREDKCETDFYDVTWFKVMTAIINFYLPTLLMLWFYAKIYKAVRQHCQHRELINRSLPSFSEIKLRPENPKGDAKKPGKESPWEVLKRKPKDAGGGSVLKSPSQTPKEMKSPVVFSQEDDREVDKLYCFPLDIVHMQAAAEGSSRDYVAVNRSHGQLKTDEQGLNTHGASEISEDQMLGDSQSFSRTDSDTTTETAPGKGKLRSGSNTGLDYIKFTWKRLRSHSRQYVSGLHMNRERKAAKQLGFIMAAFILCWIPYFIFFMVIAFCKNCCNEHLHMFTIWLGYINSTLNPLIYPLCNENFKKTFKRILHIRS
# Sequence of Endothelin-1 receptor (Homo sapiens) (P25101 whole entry): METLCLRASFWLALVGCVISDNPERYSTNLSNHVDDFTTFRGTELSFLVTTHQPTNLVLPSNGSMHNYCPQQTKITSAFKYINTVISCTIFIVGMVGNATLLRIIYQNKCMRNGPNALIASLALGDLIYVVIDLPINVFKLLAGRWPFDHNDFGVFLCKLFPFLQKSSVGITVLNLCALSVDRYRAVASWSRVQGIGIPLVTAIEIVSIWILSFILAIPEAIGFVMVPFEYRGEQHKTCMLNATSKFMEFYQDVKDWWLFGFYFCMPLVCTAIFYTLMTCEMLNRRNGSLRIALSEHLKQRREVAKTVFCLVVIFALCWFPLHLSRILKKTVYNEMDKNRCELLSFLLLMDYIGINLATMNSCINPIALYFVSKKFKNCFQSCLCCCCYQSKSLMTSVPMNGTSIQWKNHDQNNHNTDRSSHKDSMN
# Sequence of C-X-C chemokine receptor type 2 (Homo sapiens) (P25025 whole entry): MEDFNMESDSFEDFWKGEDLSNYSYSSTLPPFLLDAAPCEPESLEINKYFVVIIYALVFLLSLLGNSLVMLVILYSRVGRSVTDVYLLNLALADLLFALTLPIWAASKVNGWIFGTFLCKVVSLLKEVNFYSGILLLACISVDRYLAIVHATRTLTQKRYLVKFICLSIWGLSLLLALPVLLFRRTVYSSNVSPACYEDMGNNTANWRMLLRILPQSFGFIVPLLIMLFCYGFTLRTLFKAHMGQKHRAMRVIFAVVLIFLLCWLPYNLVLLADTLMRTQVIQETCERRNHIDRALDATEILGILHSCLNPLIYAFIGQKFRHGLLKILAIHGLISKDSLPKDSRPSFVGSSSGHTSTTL
# Sequence of Neurotensin receptor type 1 (Homo sapiens) (P30989 whole entry): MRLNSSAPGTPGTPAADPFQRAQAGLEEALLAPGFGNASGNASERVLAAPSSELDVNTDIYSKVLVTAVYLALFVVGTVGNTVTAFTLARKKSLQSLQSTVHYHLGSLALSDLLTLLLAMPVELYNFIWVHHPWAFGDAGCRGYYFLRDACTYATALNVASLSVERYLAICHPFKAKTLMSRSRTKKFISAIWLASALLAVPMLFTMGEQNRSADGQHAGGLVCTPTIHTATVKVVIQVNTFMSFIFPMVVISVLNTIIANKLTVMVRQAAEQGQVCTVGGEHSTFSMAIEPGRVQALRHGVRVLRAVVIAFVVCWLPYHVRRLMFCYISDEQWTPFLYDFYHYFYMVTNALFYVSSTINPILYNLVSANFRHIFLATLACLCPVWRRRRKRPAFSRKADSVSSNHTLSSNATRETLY
# Sequence of Sodium-dependent noradrenaline transporter (Homo sapiens) (P23975 whole entry): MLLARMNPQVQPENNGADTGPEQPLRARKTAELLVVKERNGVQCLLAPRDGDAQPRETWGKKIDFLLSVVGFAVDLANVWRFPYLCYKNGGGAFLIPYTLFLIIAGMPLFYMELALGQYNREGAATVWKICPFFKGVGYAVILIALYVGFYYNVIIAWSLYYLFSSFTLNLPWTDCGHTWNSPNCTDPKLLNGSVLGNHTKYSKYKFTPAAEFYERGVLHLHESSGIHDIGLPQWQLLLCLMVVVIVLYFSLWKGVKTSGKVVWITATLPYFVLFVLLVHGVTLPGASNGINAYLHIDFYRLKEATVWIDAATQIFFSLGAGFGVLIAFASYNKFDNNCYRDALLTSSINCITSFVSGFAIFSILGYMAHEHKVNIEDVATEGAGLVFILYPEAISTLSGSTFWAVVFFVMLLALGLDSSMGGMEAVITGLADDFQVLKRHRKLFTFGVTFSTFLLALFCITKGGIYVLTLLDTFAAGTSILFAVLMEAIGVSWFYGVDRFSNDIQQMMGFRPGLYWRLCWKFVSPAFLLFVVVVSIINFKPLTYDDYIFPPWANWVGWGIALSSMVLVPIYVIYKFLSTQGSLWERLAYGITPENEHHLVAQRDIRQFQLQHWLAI
# Sequence of 5-hydroxytryptamine receptor 3A (Homo sapiens) (P46098 whole entry): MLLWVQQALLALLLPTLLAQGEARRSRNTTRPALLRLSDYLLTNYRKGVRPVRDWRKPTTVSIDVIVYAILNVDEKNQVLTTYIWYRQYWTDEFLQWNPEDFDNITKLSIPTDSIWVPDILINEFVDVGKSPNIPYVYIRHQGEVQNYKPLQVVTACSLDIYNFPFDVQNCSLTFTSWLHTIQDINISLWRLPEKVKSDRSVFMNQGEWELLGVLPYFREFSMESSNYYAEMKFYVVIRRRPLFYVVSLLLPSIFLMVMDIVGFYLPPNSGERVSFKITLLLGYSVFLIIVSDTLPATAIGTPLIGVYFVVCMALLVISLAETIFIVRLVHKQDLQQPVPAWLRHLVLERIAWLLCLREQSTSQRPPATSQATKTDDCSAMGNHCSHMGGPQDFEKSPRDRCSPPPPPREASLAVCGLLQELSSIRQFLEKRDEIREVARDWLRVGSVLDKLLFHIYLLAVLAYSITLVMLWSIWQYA
# Sequence of D(1A) dopamine receptor (Homo sapiens) (P21728 whole entry): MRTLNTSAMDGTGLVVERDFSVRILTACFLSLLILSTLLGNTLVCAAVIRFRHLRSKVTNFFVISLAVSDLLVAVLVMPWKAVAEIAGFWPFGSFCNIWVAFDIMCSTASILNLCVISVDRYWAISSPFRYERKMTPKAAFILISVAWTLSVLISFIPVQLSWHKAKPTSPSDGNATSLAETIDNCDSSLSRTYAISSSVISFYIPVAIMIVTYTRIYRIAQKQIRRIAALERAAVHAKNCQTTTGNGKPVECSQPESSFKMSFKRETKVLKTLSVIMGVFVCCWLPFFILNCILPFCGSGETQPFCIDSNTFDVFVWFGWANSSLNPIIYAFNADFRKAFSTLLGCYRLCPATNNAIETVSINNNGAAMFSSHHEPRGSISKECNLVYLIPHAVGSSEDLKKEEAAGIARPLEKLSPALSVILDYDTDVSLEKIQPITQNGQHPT
# Sequence of Substance-K receptor (Homo sapiens) (P21452 whole entry): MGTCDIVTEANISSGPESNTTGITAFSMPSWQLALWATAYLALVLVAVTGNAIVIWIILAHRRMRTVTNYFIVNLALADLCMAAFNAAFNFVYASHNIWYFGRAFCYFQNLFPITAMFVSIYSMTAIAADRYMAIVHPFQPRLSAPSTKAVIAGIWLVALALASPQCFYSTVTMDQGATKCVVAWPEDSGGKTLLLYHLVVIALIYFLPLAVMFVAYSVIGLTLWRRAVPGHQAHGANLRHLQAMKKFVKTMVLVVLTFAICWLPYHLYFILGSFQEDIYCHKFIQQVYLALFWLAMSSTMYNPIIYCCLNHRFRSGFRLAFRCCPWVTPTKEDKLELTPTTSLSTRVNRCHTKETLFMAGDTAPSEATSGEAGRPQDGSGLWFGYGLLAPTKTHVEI
# Sequence of Histamine H2 receptor (Homo sapiens) (P25021 whole entry): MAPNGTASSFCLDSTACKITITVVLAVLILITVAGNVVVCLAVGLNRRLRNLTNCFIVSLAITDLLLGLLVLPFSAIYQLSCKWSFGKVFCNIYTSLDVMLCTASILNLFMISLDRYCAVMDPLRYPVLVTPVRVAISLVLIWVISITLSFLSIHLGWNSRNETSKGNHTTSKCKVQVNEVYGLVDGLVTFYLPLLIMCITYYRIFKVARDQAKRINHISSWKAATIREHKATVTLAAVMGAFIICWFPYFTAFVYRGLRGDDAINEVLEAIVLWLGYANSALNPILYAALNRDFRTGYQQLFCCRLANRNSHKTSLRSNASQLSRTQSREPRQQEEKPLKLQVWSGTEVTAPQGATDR
# Sequence of 5-hydroxytryptamine receptor 6 (Homo sapiens) (P50406 whole entry): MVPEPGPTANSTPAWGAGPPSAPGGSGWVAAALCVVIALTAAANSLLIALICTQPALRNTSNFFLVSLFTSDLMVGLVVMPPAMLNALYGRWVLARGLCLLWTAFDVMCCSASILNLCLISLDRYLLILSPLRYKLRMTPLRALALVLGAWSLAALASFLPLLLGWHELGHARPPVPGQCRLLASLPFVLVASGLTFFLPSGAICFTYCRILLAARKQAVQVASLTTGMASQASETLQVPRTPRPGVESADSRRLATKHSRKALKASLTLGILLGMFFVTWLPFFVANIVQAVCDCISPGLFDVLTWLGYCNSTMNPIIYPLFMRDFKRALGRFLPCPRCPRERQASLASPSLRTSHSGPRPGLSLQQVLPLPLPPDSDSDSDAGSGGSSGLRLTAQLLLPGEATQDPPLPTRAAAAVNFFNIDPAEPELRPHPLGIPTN
compound,measurement,setting,value
CNc1nc(C)nc(N2CCC(C(=O)NCc3ccc(Br)cc3OC(F)(F)F)CC2)n1,inhibition,[1],< 50%
same,inhibition,[2],< 50%
same,inhibition,[3],< 50%
same,inhibition,[4],< 50%
same,inhibition,[5],< 50%
same,inhibition,[6],< 50%
same,bioavailability,[7],100%
same,inhibition,[8],< 50%
same,inhibition,[9],< 50%
same,inhibition,[10],< 50%
same,inhibition,Homo sapiens [11],< 50%
same,inhibition,[12],< 50%
same,inhibition,Homo sapiens [13],< 50%
same,inhibition,Homo sapiens [14],< 50%
same,inhibition,[15],< 50%
same,inhibition,[16],< 50%
same,inhibition,[17],< 50%
same,pIC50,[18],9.30
same,inhibition,[19],< 50%
same,pIC50,[20],8.52
same,fraction unbound,[21],0.015
same,inhibition,Homo sapiens [22],< 50%
same,inhibition,[23],< 50%
same,pIC50,[24],< 5.00
same,Vd,[25],2.1 L/kg
same,inhibition,[26],< 50%
same,AUC/dose,Rattus norvegicus [27],1.3 kg·h/L
same,inhibition,[28],< 50%
same,fCmax,Rattus norvegicus [29],0.25 nM
same,inhibition,Homo sapiens [30],< 50%
same,inhibition,[31],< 50%
same,inhibition,[32],< 50%
same,pIC50,Cytochrome P450 2C8,< 4.52
same,inhibition,[33],< 50%
same,clearance,[34],12 mL/min/kg
same,inhibition,[35],< 50%
same,inhibition,[36],< 50%
same,inhibition,[37],< 50%
same,inhibition (INH),Rattus norvegicus [38],50%
same,inhibition,Homo sapiens [39],< 50%
same,inhibition,[40],< 50%
